Reference: patent publication US9487502B2, “Chemical compounds” (Syngenta Limited, priority 2013, dated 2016)

Columns and labels:
Type in all cases: in vivo
Parameters in all cases: key: 5=total damage to plant; 0=no damage to plant
Alopecurus myosuroides [1] = assay: Post-emergence herbicidal activity, ALOMY; details: 1000 g/Ha, sprayed post-emergence (8 days cultivation), evaluated after 13 days, scale 0-5
Description: (§1) Seeds of a variety of test species were sown in standard soil in pots. After 8 days cultivation (post-emergence) under controlled conditions in a glasshouse (at 24/16° C., day/night; 14 hours light; 65% humidity), the plants were sprayed with an aqueous spray solution derived from the formulation of the technical active ingredient in acetone/water (50:50) solution containing 0.5% Tween 20 (polyoxyethelyene sorbitan monolaurate, CAS RN 9005-64-5). The test plants were then grown in a glasshouse under controlled conditions (at 24/16° C., day/night; 14 hours light; 65% humidity) and watered twice daily. After 13 days, the test was evaluated (5=total damage to plant; 0=no damage to plant).

Setaria faberi [2] = assay: Pre-emergence herbicidal activity, SETFA; details: 1000 g/Ha, sprayed pre-emergence, evaluated after 13 days, scale 0-5
Description: as §1, with “After” for “After 8 days”, “for one day (pre-emergence)” for “(post-emergence)”

Abutilon theophrasti [3] = assay: Post-emergence herbicidal activity, ABUTH; details: 1000 g/Ha, sprayed post-emergence (8 days cultivation), evaluated after 13 days, scale 0-5
Description: as §1

Zea mays [4] = assay: Post-emergence herbicidal activity, ZEAMX; details: 1000 g/Ha, sprayed post-emergence (8 days cultivation), evaluated after 13 days, scale 0-5
Description: as §1

Alopecurus myosuroides [5] = assay: Pre-emergence herbicidal activity, ALOMY; details: 1000 g/Ha, sprayed pre-emergence, evaluated after 13 days, scale 0-5
Description: as §1, with “After” for “After 8 days”, “for one day (pre-emergence)” for “(post-emergence)”

Echinochloa crus-galli [6] = assay: Post-emergence herbicidal activity, ECHCG; details: 1000 g/Ha, sprayed post-emergence (8 days cultivation), evaluated after 13 days, scale 0-5
Description: as §1

Zea mays [7] = assay: Pre-emergence herbicidal activity, ZEAMX; details: 1000 g/Ha, sprayed pre-emergence, evaluated after 13 days, scale 0-5
Description: as §1, with “After” for “After 8 days”, “for one day (pre-emergence)” for “(post-emergence)”

Abutilon theophrasti [8] = assay: Pre-emergence herbicidal activity, ABUTH; details: 1000 g/Ha, sprayed pre-emergence, evaluated after 13 days, scale 0-5
Description: as §1, with “After” for “After 8 days”, “for one day (pre-emergence)” for “(post-emergence)”

Amaranthus retroflexus [9] = assay: Post-emergence herbicidal activity, AMARE; details: 1000 g/Ha, sprayed post-emergence (8 days cultivation), evaluated after 13 days, scale 0-5
Description: as §1

Echinochloa crus-galli [10] = assay: Pre-emergence herbicidal activity, ECHCG; details: 1000 g/Ha, sprayed pre-emergence, evaluated after 13 days, scale 0-5
Description: as §1, with “After” for “After 8 days”, “for one day (pre-emergence)” for “(post-emergence)”

Setaria faberi [11] = assay: Post-emergence herbicidal activity, SETFA; details: 1000 g/Ha, sprayed post-emergence (8 days cultivation), evaluated after 13 days, scale 0-5
Description: as §1

Amaranthus retroflexus [12] = assay: Pre-emergence herbicidal activity, AMARE; details: 1000 g/Ha, sprayed pre-emergence, evaluated after 13 days, scale 0-5
Description: as §1, with “After” for “After 8 days”, “for one day (pre-emergence)” for “(post-emergence)”

SMILES | ALOMY damage score, application post-emergence (Alopecurus myosuroides [1]) | SETFA damage score, application pre-emergence (Setaria faberi [2]) | ABUTH damage score, application post-emergence (Abutilon theophrasti [3]) | ZEAMX damage score, application post-emergence (Zea mays [4]) | ALOMY damage score, application pre-emergence (Alopecurus myosuroides [5]) | ECHCG damage score, application post-emergence (Echinochloa crus-galli [6]) | ZEAMX damage score, application pre-emergence (Zea mays [7]) | ABUTH damage score, application pre-emergence (Abutilon theophrasti [8]) | AMARE damage score, application post-emergence (Amaranthus retroflexus [9]) | ECHCG damage score, application pre-emergence (Echinochloa crus-galli [10]) | SETFA damage score, application post-emergence (Setaria faberi [11]) | AMARE damage score, application pre-emergence (Amaranthus retroflexus [12])
CN1CC(O)N(c2cc(C(C)(C)C)ncn2)C1=O (stereo not drawn) [Example A1, 3-(6-tert-butylpyrimidin-4-yl)-4-hydroxy-1-methyl-imidazolidin-2-one] | 5 | 5 | 5 | 5 | 4 | 5 | 4 | 5 | 5 | 5 | 5 | 5
CN1CC(O)N(c2cc(C(C)(C)C#N)ncn2)C1=O (stereo not drawn) [Example A2] | 5 | 5 | 5 | 3 | 4 | 5 | 3 | 4 | 5 | 4 | 5 | 5
CC1C(O)N(c2cc(C(C)(C)C)ncn2)C(=O)N1C (stereo not drawn) [Example A3] | 5 | 5 | 5 | 3 | 4 | 5 | 2 | 5 | 5 | 4 | 5 | 5
CN1C(=O)N(c2cc(C(C)(C)C)ncn2)C(O)C1O (stereo not drawn) [Example A4, 1-(6-tert-butylpyrimidin-4-yl)-4,5-dihydroxy-3-methyl-imidazolidin-2-one] | 4 | 2 | 4 | 1 | 2 | 2 | 0 | 4 | 5 | 2 | 4 | 5
CCOC1C(O)N(c2cc(C(C)(C)C)ncn2)C(=O)N1C (stereo not drawn) [Example A5, 1-(6-tert-butylpyrimidin-4-yl)-4-ethoxy-5-hydroxy-3-methyl-imidazolidin-2-one] | 5 | 5 | 5 | 4 | 4 | 5 | 2 | 5 | 5 | 5 | 5 | 5
COC1C(O)N(c2cc(C(C)(C)C)ncn2)C(=O)N1OC (stereo not drawn) [Example A7] | 5 | 4 | 5 | 4 | 4 | 4 | 4 | 5 | 5 | 4 | 5 | 5
CCOC1C(O)N(c2cc(C(C)(C)C)ncn2)C(=O)N1OC (stereo not drawn) [Example A8] | 5 | 5 | 5 | 4 | 5 | 5 | 1 | 5 | 5 | 5 | 5 | 5
CON1C(=O)N(c2cc(C(C)(C)C)ncn2)C(O)C1O (stereo not drawn) [Example A9] | 4 | 1 | 5 | 1 | 3 | 4 | 1 | 0 | 5 | 2 | 4 | 5
CCCOC1C(O)N(c2cc(C(C)(C)C)ncn2)C(=O)N1C (stereo not drawn) [Example A10] | 4 | 4 | 5 | 2 | 4 | 4 | 2 | 4 | 5 | 2 | 4 | 5
COC1C(O)N(c2cc(C(C)(C)C)ncn2)C(=O)N1C (stereo not drawn) [Example A11] | 4 | 4 | 5 | 1 | 3 | 4 | 1 | 4 | 5 | 3 | 5 | 5
